4 molecules from patent publication US20090076067A1, “PHARMACEUTICAL COMPOSITION COMPRISING AZARHODACYANINE COMPOUND AS ACTIVE INGREDIENT” (priority 2005, published 2009) can be followed below.

Molecules are shown by their SMILES. Like-named read-outs stand apart in the source and are kept apart here.

A short description of series [1]: Rat L6 cell proliferation inhibition test. Type of series: cell-based. The note with it: read-out: EC50 cytotoxicity L6. Here is the method:
Rat-derived L6 cells (rat skeletal myoblast cell) were used for this test. […] The sample was cultured under CO2 concentration 5% and temperature 37° C. Either the composition of the invention or control was dissolved into DMSO, to prepare test solutions having predefined concentration.
The samples were precultured until logarithmic growth phase was reached. Then the culture was transferred to each well in a 96-well culture plate, and either test solution containing test compound at predefined concentration or DSMO without compound was added. The test solution was duplicated.
The plate was cultured in an incubator for 72 hours, to examine proliferation inhibition activity. The activity was examined as follows. Alamar Blue water solution 10 μL was added to each well, and culture was continued for 2 hours. Next, the culture plate was mounted on a fluorescence microplate reader (Spectramax Gemeni XS; Molecular Devices Corporation, U.S.), and irradiated with excitation wavelength 536 nm to determine fluorescence at 588 nm. The survival rate of L6 cells in the test solution sample and control sample was calculated.
Proliferation inhibition rate(%)={(C−A)/(B−A)}×100
A: Initial cell count B: Cell count in control after 3 days C: Cell count in test solution after 3 days

Series [2] relates to Trypanosoma brucei rhodensiense (STIB 900 strain). As to the kind of experiment: African trypanosoma protozoa proliferation inhibition screening test. Type of series: cell-based. The note with it: for Selective toxicity: EC50 rat L6 cells / EC50 African trypanosoma protozoa; for EC50: Trypanosoma brucei, read-out: EC50 Trypanosoma brucei rhod. As for the experimental part:
In this experiment, bloodstream form trypomastigote of Trypanosoma brucei rhodensiense (STIB 900 strain) was used. The medium used in the experiment was prepared as follows: to filter-sterilized MEM medium, 25 mM N-2-hydroxyethylpiperazine-2-ethane sulfonate (HEPES), 1 g/L glucose, 1% MEM nonessential amino acid, 0.2 mM 2-mercaptoethanol, 2 mM pyruvic calcium salt, 0.1 mM hypoxanthine, and 15% heat-treated horse serum were added. The protozoa was cultured under atmosphere of CO2 concentration 5% and temperature 37° C.
Either the compound of the invention or a positive control (melarsoprol) was dissolved into dimethylsulfoxide (DMSO) to prepare test solution having predefined concentration. To each well in a 96-well culture plate, medium containing 8×10^3 protozoa, and either test solution containing the test compound at predefined concentration or DMSO without compound was added. Then medium was added to achieve 100 μL. The test solution was duplicated.
The culture plate was cultured in an incubator for 72 hours, and the proliferation inhibition activity was examined. The activity was determined as follows. To each well, 10 μL Alamar blue water solution was added, then the plate was again cultured for 2 hours. Then the culture plate was mounted on a fluorescence microplate reader (Spectramax Gemeni XS; Molecular Devices Corporation, U.S.), and irradiated with 536 nm excitation wavelength to determine fluorescence at 588 nm. The trypanosoma infection rate of the sample containing the test composition and that of the control sample was calculated.
(§1) Using the protozoa infection rate thus obtained, the proliferation inhibition rate was calculated according to the following equation to determine 50% proliferation inhibition concentration (EC50).
(§2) Proliferation inhibition rate(%)={1−(b−a)/(c−a)}×100
(§3) a: initial infection rate b: infection rate of the test compound solution c: infection rate of the control

Series [3] relates to Plasmodium Falciparum k1 strain. Description: Chloroquine-resistant tropical malaria protozoa proliferation inhibition screening test. Type of series: cell-based. The note with it: for Selective toxicity: EC50 rat L6 cells / EC50 Chloroquine-resistant malaria protozoa; for EC50: Plasmodium falciparum, chloroquine-resistant K1 strain, 3H-hypoxanthine uptake, read-out: EC50 P. falciparum K1. Here is the method: In this experiment, Plasmodium Falciparum k1 strain protozoa were used. The medium used in the experiment was filter-sterilized RPMI-1640 medium. To the medium human serum was added to achieve 5% concentration. The protozoa was cultured under condition of O2 concentration 3%, CO2 concentration 4%, N2 concentration 93%, and temperature 37° C.
The cultured malaria infected red blood cells were collected by centrifugation, diluted with non-infected red blood cells, to achieve initial infection rate 0.15%. The hematocrit was 2.5%.
To each well in a 96-well culture plate, 200 μL malaria infected culture was added, and either test solution containing test compound at predefined concentration or DMSO having no test compound was added. Each test solution was prepared in duplicate. After 48 hours culture under 37° C., hypoxanthine labeled with radioactive tritium (^3H) of 0.5 μCi was added to each well. After culturing under same condition for 24 hours, the product was collected on a glass fiber filter and washed. The intensity of radiation was measured by Beta plate liquid scintillation counter (Wallac Inc.), to determine malaria protozoa infection rate in test compound samples and control samples.
Using the malaria protozoa infection rate, the proliferation inhibition rate was calculated according to the following equation to determine 50% proliferation inhibition concentration (EC50).
as §2
(§4) a: initial infection rate b: infection rate of test compound solution c: infection rate of the control

The subject of series [4] is Trypanosoma cruzi (Tulahuen C2C4 strain). Description: American trypanosoma protozoa proliferation inhibition screening test. Type of series: cell-based. The note with it: for Selective toxicity: EC50 rat L6 cells / EC50 American trypanosoma protozoa; for EC50: Trypanosoma cruzi, Tulahuen C2C4 strain in rat L6 cells, 96 hours, CPRG/Nonidet, read-out: EC50 Trypanosoma cruzi. Here is the method:
In this experiment, amastigote and trypomastigote of Trypanosoma cruzi (Tulahuen C2C4 strain) infected to rat L6 cells were used. The medium used in the experiment was prepared as follows: to RPMI 1640 medium containing L6 cells, L-glutamine (200 mM) and fetal bovine serum was added to achieve concentration of 1% and 10%, respectively. The culture was conducted under CO2 concentration 5% and temperature 37° C.
Either the compound of the invention or a positive control (benznidazole) was dissolved into DMSO to prepare test solution having predefined concentration. To each well in a 96-well culture plate, medium containing 5×10^3 protozoa was added and precultured for 48 hours. After replacing the medium, either the test solution containing compound of the invention in predefined concentration or DMSO without compound was added. The test solution was duplicated.
The plate was cultured in an incubator for 96 hours, and the proliferation inhibition activity was examined. The activity was determined as follows. To each well, 50 μL CPRG/Nonidet was added, then left for 2 to 6 hours. Then the culture plate was mounted on an absorption microplate reader to determine absorption at 540 nm. The trypanosoma infection rate of the sample containing the test compound and that of the control sample was calculated.
as §1, §2, §3

Series [5] relates to Leishmania donovani (MHOM/ET/67/L82 strain). As to the kind of experiment: Leishmania protozoa proliferation inhibition screening test. Type of series: cell-based. Here is the method:
In this experiment, Leishmania donovani (MHOM/ET/67/L82 strain) was used. The protozoa were successively cultured in Syrian Golden hamsters to obtain amastigote. The medium used in the experiment was SM medium having heat-treated fetal bovine serum 10% added, and pH prepared to 5.4. The culture was conducted under CO2 concentration 5% and temperature 37° C.
Either the compound of the invention or a positive control (miltefosine) was dissolved into DMSO to prepare test solution having predefined concentration. To each well of a 96-well culture plate, medium containing predetermined number of protozoa was added and the culture was pre-treated. The concentration of amastigote was determined by CASY cell analyze system (Scharfe GMBH Co., Germany). Subsequently, either test solution containing compound of the invention in predefined concentration or DMSO without compound was added. The test solution was duplicated.
The plate was cultured in an incubator for 72 hours, and the proliferation inhibition activity was examined. The activity was determined as follows. To each well, 10 μL Alamar blue aqueous solution was added, then cultured again for 2 hours. Then the culture plate was mounted on a fluorescence microplate reader (Spectramax Gemeni XS; Molecular Devices Corporation, U.S), and irradiated 536 nm excitation wavelength to determine […] at 588 nm. The leishmania infection rate of the sample containing the test compound and that of the control sample was calculated.
as §1, §2, §4

The test system of series [6] is Plasmodium berghei NK 65 strain. Description: animal or person. Type of series: in vivo. From the text:
For a test to evaluate therapeutic effect of the compound, 4-day suppressive test which is commonly used for in vivo test to evaluate activity of anti-malaria compound was used. In this experiment, rodent malaria protozoa (Plasmodium berghei NK 65 strain) were used. The infected blood was collected from 5-weeks age (SPF) ICR strain male mouse which were infected intraperitoneally and successively cultured. From the caudal vein of the infected mouse, blood was collected to calculate infection rate. After confirming that infection rate was adequately elevated (10% to 20% infection), the malaria infected blood was collected from the heart of the mouse. The infection rate and count of the red blood cells (cells/mL) were calculated. The infected red blood cell was diluted with PBS buffer to achieve […] protozoa per 0.2 mL dose. The infected cells were injected to the caudal vein of uninfected mouse (ICR strain, male, 5-weeks age) to cause infection. Five mice were made into one group, and the test compound was administered in predefined concentration. From 2 hours after infection, the compound was administered every 24 hours for straight 4 days.
The compound of the invention to be used in this test was dissolved in saline (Otsuka Pharmaceutical Co., Ltd.) to obtain test solution of predefined concentration. When the compound was not dissolved in saline, it was dissolved in SSV (saline containing 0.5% sodium=carboxymethyl cellulose, 0.5% benzyl alcohol, 0.4% Tween 80) to prepare test solution. For the control group (non-treatment group), only saline (Otsuka) was administered. Positive controls S-1 to S-5 were dissolved in saline (Otsuka) or SSV in predetermined concentration to prepare test solution. When the compound was not dissolved in saline, it was dissolved in SSV. After measuring weight of each mouse, the dose for each mouse was calculated to achieve 5.0 to 40 mg concentration for weight1 kg.
Five mice were made into one group, and the test compound was administered intraperitoneally at predefined concentration. From 2 hours after infection, the compound was administered every 24 hours for straight 4 days. Subsequent to the 24 hours after last treatment, blood was collected from the tail of the mouse to prepare thin layer smear in order to count malaria protozoa infection in the treatment group and the control group under microscope. The mice showing maximum value and minimum value were excluded from the average calculation (average was calculated for three mice), to determine malaria protozoa infection rate (Parasitemia).
Using malaria protozoa infection rate thus calculated, recovery rate obtained from the test compound (suppression) was determined.
Recovery rate: suppression(%)=(b−a)/b×100 a: Protozoa infection rate in the treatment group b: Protozoa infection rate in the control group Mean survival days: MSD(day)=c−d c: Average days from the initial treatment (date of malaria infection) to the date of death for the treatment group (5 mice) d: Average days from the date of malaria infection to the date of death for the non-treatment (control) group (5 mice) […]
Tables 5 to 7 illustrate the recovery rate (%) and survival days (day) of malaria infected mice treated with intraperitoneal injection of the test compound and the control compound at predefined concentration. The meaning of symbols in the table is as follows.

Where [7] appears, read: L6 cells (rat skeletal myoblasts), Table 1, Alamar Blue.
Where [8] appears, read: STIB900, STIB 900 bloodstream form, 72 hours, Alamar blue.

The term EC50 denotes the midpoint of the concentration-response curve. For `Nc1nc(N)nc(Nc2ccc([As]3SCC(CO)S3)cc2)n1` (centres unmarked) [Melarsoprol, reference compound], the EC50 at 72 h in series [1] (Table 2, rat L6 cells, Alamar Blue) turned out to be 3.1 mg/L. In series [2], this molecule registered a Selective toxicity of 1300. Further, in series [2] (STIB900, 72 h), the EC50 was 0.0024 mg/L.

Regarding `CCN1C(=O)/C(=c2\nc3c(s2)=CC=CN3C)S/C1=N\c1sc2ccccc2[n+]1C.[Cl-]` [Compound A-21], the Selective toxicity in series [3] is 3005; in series [2], 207; in series [4] it was 41; in series [5] (EC50 rat L6 cells / EC50 leishmania protozoa), 18. For the same molecule, the EC50 amounted to 0.002 mg/L in series [3]; 0.029 mg/L in series [2] (setting [8]); 0.145 mg/L in series [4]; 0.343 mg/L in series [5] (Leishmania donovani, amastigote, 72 hours, Alamar blue, read-out: EC50 Leishmania donovani). Further, in series [1] (setting [7]), the EC50 at 72 h was determined as 6.01 mg/L.

With `CCN1C(=O)/C(=c2\nc3c(s2)=CC=CN3C)S/C1=N\c1scc[n+]1C.[Cl-]` [Compound A-20], the Selective toxicity in series [3] was 2211; in series [2], 256; in series [4], 32. For the same molecule, the EC50 in series [3] turned out to be 0.011 mg/L; in series [2] (setting [8]) it was 0.095 mg/L; in series [4], 0.763 mg/L. In addition, the EC50 at 72 h in series [1] (setting [7]) turned out to be 24.3 mg/L.

For the molecule `CCn1c(=O)/c(=C2\C=CC=CN2C)s/c1=C1\S/C(=N\c2sc3cc(Cl)ccc3[n+]2C)N(C(C)C)C1=O` [Compound B-36], the Selective toxicity in series [3] came to 1165; in series [2] it was 85. Besides, the EC50 in series [3] came to 0.009 mg/L; in series [2] (setting [8]), 0.123 mg/L. Besides, in series [1] (setting [7]), the EC50 at 72 h stood at 10.5 mg/L. Moreover, the inhibition in vivo at 25 mg/kg/day in series [6] (Plasmodium berghei, ip, 96 h, read-out: Recovery Rate (suppression)) came out at 95.5%. Besides, the “Survival days (mean survival days, treatment group minus control group)” value in series [6] (dose 25 mg/kg/d intraperitoneally, 4 days) was found to be 1.7 days.
